Values of other authors in paper PMC9516332 (Frontiers in Oncology, 2022).
Read-outs that look alike come from different tables or passages of the source.

How the values were obtained:
Details in all cases: cited from earlier work
[1] = target: panel of 255 wild-type kinases (Homo sapiens, UniProt Q15208)
[2] = target: T1, panel of 255 wild-type kinases (Homo sapiens, UniProt Q14164)
T1 sequence (Q14164 1-716): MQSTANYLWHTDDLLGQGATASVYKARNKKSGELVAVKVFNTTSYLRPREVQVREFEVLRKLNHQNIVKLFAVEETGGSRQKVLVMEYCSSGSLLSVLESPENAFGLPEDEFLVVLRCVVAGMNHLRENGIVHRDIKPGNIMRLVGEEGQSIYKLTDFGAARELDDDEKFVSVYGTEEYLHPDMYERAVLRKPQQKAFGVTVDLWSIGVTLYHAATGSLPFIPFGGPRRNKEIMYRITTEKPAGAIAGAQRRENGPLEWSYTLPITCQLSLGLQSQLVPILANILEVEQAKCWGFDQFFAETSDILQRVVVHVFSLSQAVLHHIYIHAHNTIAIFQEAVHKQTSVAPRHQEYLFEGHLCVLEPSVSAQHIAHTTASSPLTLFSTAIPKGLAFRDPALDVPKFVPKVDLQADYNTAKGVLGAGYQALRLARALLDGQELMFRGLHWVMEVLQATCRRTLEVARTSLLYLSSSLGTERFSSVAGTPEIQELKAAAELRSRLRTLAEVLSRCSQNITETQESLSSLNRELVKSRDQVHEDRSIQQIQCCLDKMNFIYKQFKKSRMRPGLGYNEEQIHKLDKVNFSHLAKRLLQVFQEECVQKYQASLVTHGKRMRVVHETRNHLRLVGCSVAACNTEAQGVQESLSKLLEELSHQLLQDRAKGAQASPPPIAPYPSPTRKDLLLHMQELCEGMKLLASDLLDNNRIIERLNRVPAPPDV

[3] = target: panel of 255 wild-type kinases (Homo sapiens, UniProt Q07912)
[4] = target: panel of 255 wild-type kinases (Homo sapiens, UniProt P57059)
[5] = target: panel of 255 wild-type kinases (Homo sapiens, UniProt Q9Y3S1)
[6] = target: panel of 255 wild-type kinases (Homo sapiens, UniProt P28482)
[7] = target: T2, panel of 255 wild-type kinases (Homo sapiens, UniProt Q9BXA7)
T2 sequence (Q9BXA7 1-367): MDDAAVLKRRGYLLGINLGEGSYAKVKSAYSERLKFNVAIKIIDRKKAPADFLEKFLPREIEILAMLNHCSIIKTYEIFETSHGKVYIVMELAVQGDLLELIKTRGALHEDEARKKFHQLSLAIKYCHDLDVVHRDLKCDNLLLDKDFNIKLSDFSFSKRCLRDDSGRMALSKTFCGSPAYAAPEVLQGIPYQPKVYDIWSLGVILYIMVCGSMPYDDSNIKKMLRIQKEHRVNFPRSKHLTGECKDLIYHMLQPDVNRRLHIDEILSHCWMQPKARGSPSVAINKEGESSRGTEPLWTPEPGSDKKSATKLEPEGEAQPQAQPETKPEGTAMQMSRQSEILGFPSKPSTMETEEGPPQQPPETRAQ

[8] = NDR1, 1 µmol/L single concentration, ref DOI: 10.1158/1535-7163.MCT-18-0877
[9] = kinase IKKε, 1 µmol/L single concentration, ref DOI: 10.1158/1535-7163.MCT-18-0877
[10] = ACK kinase assay, 1 µmol/L single concentration, ref DOI: 10.1158/1535-7163.MCT-18-0877
[11] = kinase SIK, 1 µmol/L single concentration, ref DOI: 10.1158/1535-7163.MCT-18-0877
[12] = kinase WNK2, 1 µmol/L single concentration, ref DOI: 10.1158/1535-7163.MCT-18-0877
[13] = kinase Erk2, 1 µmol/L single concentration, ref DOI: 10.1158/1535-7163.MCT-18-0877
[14] = kinase TSSK1, 1 µmol/L single concentration, ref DOI: 10.1158/1535-7163.MCT-18-0877
[15] = NDR1, 1 µmol/L single concentration, ref DOI: 10.1371/journal.pone.0092146
[16] = kinase IKKε, 1 µmol/L single concentration, ref DOI: 10.1371/journal.pone.0092146
[17] = ACK kinase assay, 1 µmol/L single concentration, ref DOI: 10.1371/journal.pone.0092146
[18] = kinase SIK, 1 µmol/L single concentration, ref DOI: 10.1371/journal.pone.0092146
[19] = kinase WNK2, 1 µmol/L single concentration, ref DOI: 10.1371/journal.pone.0092146
[20] = kinase Erk2, 1 µmol/L single concentration, ref DOI: 10.1371/journal.pone.0092146
[21] = kinase TSSK1, 1 µmol/L single concentration, ref DOI: 10.1371/journal.pone.0092146

O=C(c1ccc(F)c(F)c1Nc1ccc(I)cc1F)N1CC(O)([C@@H]2CCCCN2)C1 [cobimetinib]
%-inhibition, NDR1 [1, 8]: 2.53% | %-inhibition at 1 µmol/L, IKKε [2, 9]: -3.35% | %-inhibition ACK [3, 10]: 7% | %-inhibition at 1 µmol/L, SIK [4, 11]: 0.384% | %-inhibition at 1 µmol/L, WNK2 [5, 12]: 5% | %-inhibition at 1 µmol/L, Erk2 [6, 13]: -6.38% | %-inhibition at 1 µmol/L, TSSK1 [7, 14]: 7%

CC(C)(C)c1nc(-c2cccc(NS(=O)(=O)c3c(F)cccc3F)c2F)c(-c2ccnc(N)n2)s1 [dabrafenib]
%-inhibition, NDR1 [1, 15]: -0.891% | %-inhibition at 1 µmol/L, IKKε [2, 16]: 15% | %-inhibition ACK [3, 17]: 24% | %-inhibition at 1 µmol/L, SIK [4, 18]: 100% | %-inhibition at 1 µmol/L, WNK2 [5, 19]: 0.686% | %-inhibition at 1 µmol/L, Erk2 [6, 20]: -8% | %-inhibition at 1 µmol/L, TSSK1 [7, 21]: 8%

Cc1cc(Nc2ncc(Cl)c(Nc3ccccc3S(=O)(=O)C(C)C)n2)c(OC(C)C)cc1C1CCNCC1 [ceritinib]
%-inhibition, NDR1 [1, 8]: 15% | %-inhibition at 1 µmol/L, IKKε [2, 9]: 6.42% | %-inhibition ACK [3, 10]: 103% | %-inhibition at 1 µmol/L, SIK [4, 11]: 15% | %-inhibition at 1 µmol/L, WNK2 [5, 12]: -1.28% | %-inhibition at 1 µmol/L, Erk2 [6, 13]: 57% | %-inhibition at 1 µmol/L, TSSK1 [7, 14]: 101%

CCc1cc2c(cc1N1CCC(N3CCOCC3)CC1)C(C)(C)c1[nH]c3cc(C#N)ccc3c1C2=O [alectinib]
%-inhibition, NDR1 [1, 8]: 1.29% | %-inhibition at 1 µmol/L, IKKε [2, 9]: 1.59% | %-inhibition ACK [3, 10]: 42% | %-inhibition at 1 µmol/L, SIK [4, 11]: 12% | %-inhibition at 1 µmol/L, WNK2 [5, 12]: 1.16% | %-inhibition at 1 µmol/L, Erk2 [6, 13]: 1.1% | %-inhibition at 1 µmol/L, TSSK1 [7, 14]: 22%

CCCS(=O)(=O)Nc1ccc(F)c(C(=O)c2c[nH]c3ncc(-c4ccc(Cl)cc4)cc23)c1F [vemurafenib]
%-inhibition, NDR1 [1, 15]: -3.81% | %-inhibition at 1 µmol/L, IKKε [2, 16]: -9% | %-inhibition ACK [3, 17]: 40% | %-inhibition at 1 µmol/L, SIK [4, 18]: 24% | %-inhibition at 1 µmol/L, WNK2 [5, 19]: 13% | %-inhibition at 1 µmol/L, Erk2 [6, 20]: -4.58% | %-inhibition at 1 µmol/L, TSSK1 [7, 21]: -4%

COc1cc(N2CCC(N3CCN(C)CC3)CC2)ccc1Nc1ncc(Cl)c(Nc2ccccc2P(C)(C)=O)n1 [brigatinib]
%-inhibition, NDR1 [1]: 63% | %-inhibition at 1 µmol/L, IKKε [2]: 24% | %-inhibition ACK [3]: 104% | %-inhibition at 1 µmol/L, SIK [4]: 99% | %-inhibition at 1 µmol/L, WNK2 [5]: 0.119% | %-inhibition at 1 µmol/L, Erk2 [6]: 10% | %-inhibition at 1 µmol/L, TSSK1 [7]: 101%

CC(=O)Nc1cccc(-n2c(=O)n(C3CC3)c(=O)c3c(Nc4ccc(I)cc4F)n(C)c(=O)c(C)c32)c1 [trametinib]
%-inhibition, NDR1 [1, 15]: -1.68% | %-inhibition at 1 µmol/L, IKKε [2, 16]: -3.63% | %-inhibition ACK [3, 17]: -5.39% | %-inhibition at 1 µmol/L, SIK [4, 18]: -3% | %-inhibition at 1 µmol/L, WNK2 [5, 19]: 1.45% | %-inhibition at 1 µmol/L, Erk2 [6, 20]: -5% | %-inhibition at 1 µmol/L, TSSK1 [7, 21]: -5%

CC#CC(=O)N1CCC[C@H]1c1nc(-c2ccc(C(=O)Nc3ccccn3)cc2)c2c(N)nccn12 [acalabrutinib]
%-inhibition, NDR1 [1, 8]: -6.32% | %-inhibition at 1 µmol/L, IKKε [2, 9]: 1.46% | %-inhibition ACK [3, 10]: 14% | %-inhibition at 1 µmol/L, SIK [4, 11]: 0.256% | %-inhibition at 1 µmol/L, WNK2 [5, 12]: 0.787% | %-inhibition at 1 µmol/L, Erk2 [6, 13]: -2% | %-inhibition at 1 µmol/L, TSSK1 [7, 14]: -7%

C=CC(=O)Nc1cc(Nc2nccc(-c3cn(C)c4ccccc34)n2)c(OC)cc1N(C)CCN(C)C [osimertinib]
%-inhibition, NDR1 [1, 8]: 13% | %-inhibition at 1 µmol/L, IKKε [2, 9]: 8% | %-inhibition ACK [3, 10]: 100% | %-inhibition at 1 µmol/L, SIK [4, 11]: 22% | %-inhibition at 1 µmol/L, WNK2 [5, 12]: 4.6% | %-inhibition at 1 µmol/L, Erk2 [6, 13]: -10% | %-inhibition at 1 µmol/L, TSSK1 [7, 14]: 76%

CO[C@@H]1[C@H](N(C)C(=O)c2ccccc2)C[C@H]2O[C@]1(C)n1c3ccccc3c3c4c(c5c6ccccc6n2c5c31)C(=O)NC4 [midostaurin]
%-inhibition, NDR1 [1, 8]: 31% | %-inhibition at 1 µmol/L, IKKε [2, 9]: 97% | %-inhibition ACK [3, 10]: 102% | %-inhibition at 1 µmol/L, SIK [4, 11]: 99% | %-inhibition at 1 µmol/L, WNK2 [5, 12]: 0.935% | %-inhibition at 1 µmol/L, Erk2 [6, 13]: 2.14% | %-inhibition at 1 µmol/L, TSSK1 [7, 14]: 95%

C=CC(=O)N1CCC[C@@H](n2nc(-c3ccc(Oc4ccccc4)cc3)c3c(N)ncnc32)C1 [ibrutinib]
%-inhibition, NDR1 [1, 8]: 2.65% | %-inhibition at 1 µmol/L, IKKε [2, 9]: -0.696% | %-inhibition ACK [3, 10]: 73% | %-inhibition at 1 µmol/L, SIK [4, 11]: 8% | %-inhibition at 1 µmol/L, WNK2 [5, 12]: 5.67% | %-inhibition at 1 µmol/L, Erk2 [6, 13]: -7% | %-inhibition at 1 µmol/L, TSSK1 [7, 14]: 9%

C[C@@H](Oc1cc(-c2cnn(C3CCNCC3)c2)cnc1N)c1c(Cl)ccc(F)c1Cl [crizotinib]
%-inhibition, NDR1 [1, 15]: -1.48% | %-inhibition at 1 µmol/L, IKKε [2, 16]: 7.49% | %-inhibition ACK [3, 17]: 56% | %-inhibition at 1 µmol/L, SIK [4, 18]: 26% | %-inhibition at 1 µmol/L, WNK2 [5, 19]: -4% | %-inhibition at 1 µmol/L, Erk2 [6, 20]: -4.58% | %-inhibition at 1 µmol/L, TSSK1 [7, 21]: 21%
